The values that follow come from patent US20230058189A1, “QUINOLIN-4-ONE AND 4(1H)-CINNOLINONE COMPOUNDS AND METHODS OF USING SAME” (Frequency Therapeutics, Inc., priority 2019, published 2023).

The term inhibition denotes the share of the control response that was lost under treatment.

Experiment [1] concerns Lgr5+ cells (cochlear stem cells). Briefly: Lgr5+ assay: expansion of Lgr5-positive cochlear cells in 3D culture. The class given is cell-based, mouse. The text has this:
“Stem Cell Proliferation Assay” as used herein is an assay to determine the capacity for agent(s) to induce the creation of stem cells from a starting cell population. In an exemplary Stem Cell Proliferation Assay, the number of cells for an initial cell population is harvested from a Lgr5-GFP mouse such as a B6.129P2-Lgr5tm1(cre/ERT2)Cle/J mouse (also known as Lgr5-EGFP-IRES-creERT2 or Lgr5-GFP mouse, Jackson Lab Stock No: 008875) between the age of 3 to 7 days, by isolating the organ of Corti sensory epithelium and dissociating the epithelium into single cells. Approximately 5000 cells are entrapped in 40 μl of culture substrate (for example, Matrigel (Corning, Growth Factor Reduced)) and placed at the center of wells in a 24-well plate with 500 μl of an appropriate culture media, growth factors and agent being tested. Appropriate culture media and growth factors include Advanced DMEM/F12 with media supplements (1×N2, 1×B27, 2 mM Glutamax, 10 mM HEPES, 1 mM N-acetylcysteine, and 100 U/ml penicillin/100 μg/ml streptomycin) and growth factors (50 ng/ml EGF, 50 ng/ml bFGF, and 50 ng/ml IGF-1) as well as the agent(s) being assessed are added into each well. Cells are cultured for 10 days in a standard cell culture incubator at 37° C. and 5% CO2, with media change every 2 days. The number of Lgr5^+ cells is quantified by counting the number of cells identified as Lgr5+ in an in vitro Lgr5 activity assay (i.e., an assay mearing in vitro Lgr5 activity). The fraction of cells that are Lgr5^+ is quantified by dividing the number of cells identified as Lgr5^+ in a cell population by the total number of cells present in the cell population. The average Lgr5^+ activity of a population is quantified by measuring the average mRNA expression level of Lgr5 of the population normalized using suitable and unregulated references or housekeeping genes (e.g., Hprt). The number of hair cells in a population may be measured by staining with hair cell marker (e.g., MyosinVIIa), or using an endogenous reporter of hair cell genes (e.g., Pou4f3-GFP, Atoh1-nGFP) and analyzing using flow cytometry. The fraction of cells that are hair cells is quantified by dividing the number of cells identified as hair cells in a cell population by the total number of cells present in the cell population. Lgr5 activity can be measured by qPCR.
The compounds of the present disclosure were used in Lgr5-EGFP-IRES-Cre-ER mice (Barker et al., 2007) to analyze the effects of small molecules on cochlear stem cell expansion.
Isolation of stem cells from the inner ear: All animal studies were conducted under an approved institutional protocol according to National Institutes of Health guidelines. For experiments with neonatal mice (postnatal days 1-3), the cochleae were dissected in Hank's Balanced Salt Solution (HBSS) and the organs of Corti were separated from the stria vascularis and the modiolus. The organs of Corti were then treated with Cell Recovery Solution (Corning) for 1 hour to separate cochlear epithelium from the underlying mesenchyme. Epithelia were then collected and treated with TrypLE (Life Technologies) for 15-20 minutes at 37° C. Single cells obtained by mechanical trituration were filtered (40 μm) and suspended in Matrigel® (Corning) for 3D culture.
Cells were cultured in a 1:1 mixture of DMEM and F12, supplemented with Glutamax (GIBCO), N2, B27 (Invitrogen), EGF (50 ng/ml; Chemicon), bFGF (50 ng/ml; Chemicon), IGF1 (50 ng/ml; Chemicon) and the composition provided herein. Medium was changed every other day.
Lgr5-positive cells were quantified after 10 days (D10) in culture in multiple conditions. Cell colonies were dissociated into single cells using TrypLE (Gibco). The cells were then stained with propidium iodide (P1) and were analyzed using a flow cytometer for Lgr5-GFP expression. The number of GFP-positive cells and the percentage of GFP-positive cells were quantified. […]

In the next experiment the target is LSD-1 (Homo sapiens, UniProt O60341). Briefly: LSD-1 A-screen (AlphaScreen) demethylase enzymatic assay. The class given is biochemical. The settings on record: approximate values; for inhibition at 50 µM: read-out: Potency LSD-1 % Inhibition at 50 μM. The method, then: (§1) Enzymatic activities of compounds of the present disclosure can be tested with recombinant human LSD using an in vitro enzymatic assay to determine the ability of the compounds of the present disclosure to inhibit LSD-1 and LSD2. Examples of the assay are provided below.
(§2) All of the enzymatic reactions were conducted in duplicate at room temperature for 60 minutes in a 10 μL mixture containing assay buffer, histone H3 peptide substrate, demthylase enzyme, and the test compound. These 10 μL reactions were carried out in wells of a 384-well Optiplate (PerkinElmer). The dilution of the compounds was first performed in 100% DMSO with the highest concentration at 5 mM Each intermediate compound dilution (in 100% DMSO) was then directly diluted 30× fold into assay buffer for 3.3× concentration (DMSO). […] From this intermediate step, 3 μL of compound was added to 4 μL of demethylase enzyme dilution was incubated for 30 minutes at room temperature. After this incubation, 3 μL of peptide substrate was added. The final DMSO concentration was 1%. After enzymatic reactions, 5 μL of anti-Mouse or anti-Rabbit Acceptor beads (PerkinElmer, diluted 1:500 with 1× detection buffer) and […] (BPS, diluted 1:800 with 1× detection buffer) were added to the reaction mix. After brief shaking, the plate was incubated for 30 minutes. Finally, 10 μL of AlphaScreen™ Streptavidin-conjugated donor beads (Perkin, diluted 1:125 with 1× detection buffer) were added. After 30 minutes, the samples were measured in an AlphaScreen microplate reader (EnSpire Alpha 2390 Multilabel Reader, Perkin Elmer).
(§3) Enzyme activity assays were performed in duplicates at each concentration. The A-screen intensity data were analyzed and compared. In the absence of the compound, the intensity in each data set was defined as 100% (Ce) activity. In the absence of enzyme, the intensity in each data set was defined as 0% (C0) activity. The percent activity in the presence of each compound was calculated according to the following equation: % activity=(C−C0)/(Ce−C0), where C=the intensity in the presence of the compound.
(§4) The value of percent activity versus a series of compound concentrations was then plotted using non-linear regression analysis of Sigmoidal dose-response curve generated with the equation Y=B+(T−B)/1+10((LogEC50−X)×Hill Slope), where Y=percent activity, B=minimum percent activity, T=maximum percent activity, X=logarithm of compound and Hill Slope=slope factor or Hill coefficient. The IC50 value was determined by the concentration causing a half-maximal percent activity.
On the technique in general: In Alpha technology, singlet oxygen from a donor bead excites a nearby acceptor bead.

The next experiment addresses T1, LSD2 (Homo sapiens, UniProt Q8NB78).
T1 sequence (Q8NB78 1-822): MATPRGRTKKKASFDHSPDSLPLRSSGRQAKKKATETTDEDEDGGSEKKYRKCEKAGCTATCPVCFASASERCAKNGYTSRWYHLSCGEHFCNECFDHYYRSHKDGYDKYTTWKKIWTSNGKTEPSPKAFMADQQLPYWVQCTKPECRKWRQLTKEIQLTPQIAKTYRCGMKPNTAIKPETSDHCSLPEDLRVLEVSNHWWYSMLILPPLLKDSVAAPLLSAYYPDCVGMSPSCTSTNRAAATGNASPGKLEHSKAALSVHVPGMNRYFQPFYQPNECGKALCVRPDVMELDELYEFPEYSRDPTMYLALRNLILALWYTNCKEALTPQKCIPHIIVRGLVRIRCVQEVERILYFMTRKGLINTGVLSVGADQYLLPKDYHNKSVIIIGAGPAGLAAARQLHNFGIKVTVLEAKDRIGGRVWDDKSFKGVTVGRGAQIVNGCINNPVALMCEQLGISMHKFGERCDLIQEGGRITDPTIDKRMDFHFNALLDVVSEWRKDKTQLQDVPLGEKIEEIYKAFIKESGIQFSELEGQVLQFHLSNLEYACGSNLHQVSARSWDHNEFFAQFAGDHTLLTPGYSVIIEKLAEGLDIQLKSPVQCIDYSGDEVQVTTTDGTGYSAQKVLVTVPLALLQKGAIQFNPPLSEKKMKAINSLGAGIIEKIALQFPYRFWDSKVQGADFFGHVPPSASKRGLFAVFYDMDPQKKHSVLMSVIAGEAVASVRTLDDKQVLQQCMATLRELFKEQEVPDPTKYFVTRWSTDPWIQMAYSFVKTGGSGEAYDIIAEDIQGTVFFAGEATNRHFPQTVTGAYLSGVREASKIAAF
Briefly: LSD2 A-screen (AlphaScreen) demethylase enzymatic assay. Type of experiment: biochemical. The settings on record: 50 μM compound, approximate values; for inhibition at 50 µM: read-out: Potency LSD-2 % Inhibition at 50 μM. On the procedure: as §1, §2, §3, §4

The target in the next experiment is GSK3α (Homo sapiens, UniProt P49840). Briefly: GSK3α in vitro enzymatic assay (Kinase-Glo Max luminescence). Type of experiment: biochemical. The settings on record: recombinant human GSK3, 10 μM ATP; approximate values; read-out: Potency GSK3alpha. On the procedure:
(§5) Enzymatic activities of compounds of the present disclosure can be tested using recombinant human GSK3 in an in vitro enzymatic assay to determine the ability of the compounds of the present disclosure to inhibit GSK3α and GSK3β.
(§6) The assay was performed using Kinase-Glo® Max luminescence kinase assay kit (Promega). The assay measures kinase activity by quantitating the amount of ATP remaining in solution following a kinase reaction. The luminescent signal from the assay is correlated with the amount of ATP present and is inversely correlated with the amount of kinase activity.
(§7) To perform the assay, compounds were diluted in 10% DMSO and 5 μl of the dilution was added to a 50 μl reaction so that the final concentration of DMSO was 1% in all of reactions. The enzymatic reactions were conducted at 30° C. for 40 minutes. The 50 μl reaction mixture contained 40 mM Tris, pH 7.4, 10 mM MgCl2, 0.1 mg/ml BSA, 2 mM DTT, 0.1 mg/ml GSK tide substrate, 10 uM ATP and GSK3. After the enzymatic reaction, 50 μl of Kinase-Glo Max Luminescence kinase assay solution (Promega) was added to each reaction and plates were incubated for 15 minutes at room temperature. Luminescence signal was measured using a BioTek Synergy 2 microplate reader.
(§8) Kinase activity assays were performed in duplicate at each concentration. The luminescence data were analyzed using the computer software, GraphPad Prism. The difference between luminescence intensities in the absence of Kinase (Lut) and in the presence of Kinase (Luc) was defined as 100% activity (Lut-Luc). Using luminescence signal (Lu) in the presence of the compound, percent activity was calculated as: % activity={(Lut-Lu)/(Lut-Luc)}×100%, where Lu=the luminescence intensity in the presence of the compound (all percent activities below zero were shown zero in the table).
(§9) The values of percent activity versus a series of compound concentrations were then plotted using non-linear regression analysis of Sigmoidal dose-response curve generated with the equation Y=B+(T−B)/1+10((LogEC50−X)×Hill Slope), where Y=percent activity, B=minimum percent activity, T=maximum percent activity, X=logarithm of compound and Hill Slope=slope factor or Hill coefficient. The ICs, value was determined by the concentration causing a half-maximal percent activity.
In general terms: Kinase-Glo measures the ATP left after a reaction by luminescence.

The target of another experiment is GSK3β (Homo sapiens, UniProt P49841). Briefly: GSK3β in vitro enzymatic assay (Kinase-Glo Max luminescence). As to conditions: recombinant human GSK3, 10 μM ATP; approximate values; read-out: Potency GSK3beta. The class given is biochemical. The method, then:
as §5, §6, §7, §8, §9

Setting [2] is: in a background of growth factors, compared to CHIR-99021 and its combinations (figures).

Sequence of GSK3α (P49840 whole entry): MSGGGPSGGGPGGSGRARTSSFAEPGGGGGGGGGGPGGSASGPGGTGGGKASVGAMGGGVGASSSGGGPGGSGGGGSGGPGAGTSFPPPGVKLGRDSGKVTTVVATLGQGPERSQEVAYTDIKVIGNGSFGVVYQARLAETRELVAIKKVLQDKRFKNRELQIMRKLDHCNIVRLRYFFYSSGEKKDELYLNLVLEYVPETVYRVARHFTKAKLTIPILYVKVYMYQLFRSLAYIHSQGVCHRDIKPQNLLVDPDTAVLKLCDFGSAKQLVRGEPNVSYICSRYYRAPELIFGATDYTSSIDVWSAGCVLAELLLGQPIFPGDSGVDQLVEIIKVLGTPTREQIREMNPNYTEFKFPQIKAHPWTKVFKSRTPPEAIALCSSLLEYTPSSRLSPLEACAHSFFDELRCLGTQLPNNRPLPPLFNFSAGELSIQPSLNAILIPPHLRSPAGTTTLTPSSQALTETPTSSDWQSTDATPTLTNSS
Sequence of GSK3β (P49841 whole entry): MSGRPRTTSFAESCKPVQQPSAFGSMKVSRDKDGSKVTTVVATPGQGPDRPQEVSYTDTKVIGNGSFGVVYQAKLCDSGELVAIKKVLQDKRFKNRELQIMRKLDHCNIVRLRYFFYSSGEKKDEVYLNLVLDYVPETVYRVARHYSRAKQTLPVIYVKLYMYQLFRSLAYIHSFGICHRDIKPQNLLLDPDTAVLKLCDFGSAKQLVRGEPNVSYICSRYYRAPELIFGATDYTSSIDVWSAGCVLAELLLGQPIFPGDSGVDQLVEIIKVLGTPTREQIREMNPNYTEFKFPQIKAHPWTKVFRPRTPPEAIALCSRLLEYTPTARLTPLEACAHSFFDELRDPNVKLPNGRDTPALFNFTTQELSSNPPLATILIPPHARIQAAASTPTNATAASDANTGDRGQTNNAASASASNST

For `CCn1cc(C(=O)O)c(=O)c2c(N)c(F)c(N[C@@H]3C[C@H]3c3ccccc3)cc21` (relative stereo) [Compound I-20], the “Potency (Lgr5+ activity)” value in experiment [1] (effective concentration for Lgr5+ expansion, 10 days culture with EGF, bFGF, IGF1, approximate values) is 1.1 µM. In addition, in experiment [1] (setting [2]), the “Lgr5 GFP+ progenitor cell proliferation (Lgr5 positive cell count)” value is listed as “generate Lgr5 GFP+ progenitor cell proliferation” and the “enrichment of Lgr5 GFP+ cochlear progenitor cells (percent of Lgr5 positive cells)” value is “generates enrichment of Lgr5 GFP+ cochlear progenitor cells”.
Regarding `Nc1c(F)c(NCCN[C@@H]2C[C@H]2c2ccccc2)cc2c1c(=O)c(C(=O)O)cn2CCO` (relative stereo) [Compound I-90], the IC50 on LSD-1 (read-out: Potency LSD-1 IC50) was found to be 8.5 µM; on GSK3α, 0.99 µM; at GSK3β, 1.6 µM. Moreover, at LSD2, the inhibition at 50 µM was determined as 8%.
`CCn1cc(C(=O)O)c(=O)c2c(N)c(F)c(N[C@@H]3C[C@H]3c3ccccc3)cc21` (single isomer, unassigned) [Compound I-63]: at LSD-1 (50 μM compound, 50 µM), the “Potency LSD-1 % Inhibition at 50 μM” value is 26% @ 50 μM. Also, on LSD2 (50 µM), the “Potency LSD-2 % Inhibition at 50 μM” value stood at 6%. Also, the IC50 at GSK3α and on GSK3β was > 10 µM in each case.
As to `CCn1cc(C(=O)O)c(=O)c2c(N)c(F)c(OCCc3ccccc3)cc21` [Compound I-52], the figures for the inhibition at 50 µM at LSD-1 (50 μM compound) and at LSD2 were 0% and 3%, respectively. Also, the IC50 on GSK3α and on GSK3β was > 10 µM each time.
With `CCn1cc(C(=O)O)c(=O)c2c(F)cc(NCc3ccccc3)cc21` [Compound I-55], the IC50 at GSK3α and on GSK3β was > 10 µM throughout.
On to `CCn1cc(C(=O)O)c(=O)c2c(N)cc(NCCc3ccccc3)cc21` [Compound I-56], for which the inhibition at 50 µM amounted to 56% on LSD-1 (50 μM compound) and 28% at LSD2. For the same molecule, the IC50 on GSK3α and at GSK3β was > 10 µM in each case.
Take `CCn1cc(C(=O)O)c(=O)c2c(N)cc(NC3CCCCC3)cc21` [Compound I-58]: the results for the inhibition at 50 µM on LSD-1 (50 μM compound) and at LSD2 were 77% and 7%, respectively. Moreover, the IC50 at GSK3α and at GSK3β was > 10 µM each time.
As to `CCn1cc(C(=O)O)c(=O)c2c(N)cc(NC3CCCCC3)c(F)c21` [Compound I-64], the inhibition at 50 µM at LSD-1 (50 μM compound) was 72%; on LSD2, 2%. Also, the IC50 on GSK3α and on GSK3β was > 10 µM each time.
